Laboratory results published in patent US20240368174A1, “Antiviral Heterocyclic Compounds” (Enanta Pharmaceuticals, Inc., priority 2023, published 2024).

System: HMPV clinical isolate A2 strain TN 94-49
Test: HMPV antiviral assay, Method 2 (LLC-MK2 cells with CP-100-356, ATP-Lite)
Type: cell-based
Conditions: human metapneumovirus; hMPV A2 TN/94-49, LLC-MK2 cells with CP-100-356, Method 2
How it was run: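 LLC-MK2 rhesus kidney cells (5,000/well) infected in suspension with HMPV A2 TN 94-49 at MOI 0.16, in serum-free medium with final 2 μg/mL TPCK-trypsin and 2 μM CP-100-356. Compounds tested in duplicate from 200 nM, 2.5-fold, 10 points; 7 days at 37 °C. Cell health by ATP-Lite luminescence; EC50 by four-parameter fit.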

| SMILES | EC50 [µM] |
| --- | --- |
| COc1cc(F)c(-c2nc([C@@](O)(CNC(=O)c3cc(OC)c4nn(C5(F)CC5)cc4c3)c3ccccc3)cc3c2OC[C@]3(C)C(N)=O)cc1F [Example 363] | > 0.2 |
| COc1cc(-c2nc([C@@](O)(CNC(=O)c3cc(OC)c4nn(C5(F)CC5)cc4c3)c3ccccc3)cc3c2OC[C@]3(C)C(N)=O)c(F)cc1F [Example 364] | > 0.2 |
| COc1cc(F)c(F)cc1-c1nc([C@@](O)(CNC(=O)c2cc(OC)c3nn(C4(F)CC4)cc3c2)c2ccccc2)cc2c1OC[C@]2(C)C(N)=O [Example 365] | < 0.2 |
| COc1cc(C(=O)NC[C@@](O)(c2ccccc2)c2cc3c(c(-c4cccc5c4OCO5)n2)OC[C@]3(C)C(N)=O)cc2cn(C3(F)CC3)nc12 [Example 366] | > 0.2 |
| COc1cc(C(=O)NC[C@@](O)(c2ccccc2)c2cc3c(c(-c4cccc(F)c4F)n2)OC[C@]3(C)C(N)=O)cc2cn(C3(F)CC3)nc12 [Example 367] | < 0.2 |
| COc1cc(C(=O)NC[C@@](O)(c2ccccc2)c2cc3c(c(-c4cccc(F)c4Cl)n2)OC[C@]3(C)C(N)=O)cc2cn(C3(F)CC3)nc12 [Example 368] | < 0.2 |
| COc1cc(C(=O)NC[C@@](O)(c2ccccc2)c2cc3c(c(-c4cccc(Cl)c4F)n2)OC[C@]3(C)C(N)=O)cc2cn(C3(F)CC3)nc12 [Example 369] | < 0.2 |
| COc1cc(C(=O)NC[C@@](O)(c2ccccc2)c2cc3c(c(-c4ccc(F)c(F)c4Cl)n2)OC[C@]3(C)C(N)=O)cc2cn(C3(F)CC3)nc12 [Example 370] | < 0.2 |
| COc1cc(C(=O)NC[C@@](O)(c2ccccc2)c2cc3c(c(-c4ccc(S(C)(=O)=O)cc4F)n2)OC[C@]3(C)C(N)=O)cc2cn(C3(F)CC3)nc12 [Example 371] | > 0.2 |
| COc1cc(C(=O)NC[C@@](O)(c2ccccc2)c2cc3c(c(-c4cc(S(C)(=O)=O)ccc4F)n2)OC[C@]3(C)C(N)=O)cc2cn(C3(F)CC3)nc12 [Example 372] | > 0.2 |
| COc1cccc(-c2nc([C@@](O)(CNC(=O)c3cc(OC)c4nn(C5(F)CC5)cc4c3)c3ccccc3)cc3c2OC[C@]3(C)C(N)=O)c1Cl [Example 374] | < 0.2 |
| COc1c(F)ccc(-c2nc([C@@](O)(CNC(=O)c3cc(OC)c4nn(C5(F)CC5)cc4c3)c3ccccc3)cc3c2OC[C@]3(C)C(N)=O)c1Cl [Example 375] | < 0.2 |
| COc1cc(C(=O)NC[C@@](O)(c2cccc(F)c2)c2cc3c(c(-c4ccncc4Cl)n2)OC[C@]3(C)C(N)=O)cc2cn(C3CC3)nc12 [Example 377] | > 0.2 |
| COc1cc(C(=O)NC[C@](O)(c2cc3c(c(-c4ccnc(F)c4F)n2)OC[C@]3(C)C(N)=O)C2CC2)cc2cn(C3CC3)nc12 [Example 381] | < 0.2 |
| COc1cc(C(=O)NC[C@](O)(c2cc3c(c(-c4cc(F)ncc4F)n2)OC[C@]3(C)C(N)=O)C2CC2)cc2cn(C3CC3)nc12 [Example 382] | < 0.2 |
| COc1cc(C(=O)NC[C@](O)(c2cc3c(c(-c4ccnc(F)c4C)n2)OC[C@]3(C)C(N)=O)C2CC2)cc2cn(C3CC3)nc12 [Example 383] | < 0.2 |
| COc1cc(C(=O)NC[C@](O)(c2cc3c(c(-c4cc(F)ncc4Cl)n2)OC[C@]3(C)C(N)=O)C2CC2)cc2cn(C3CC3)nc12 [Example 384] | < 0.2 |
| COc1cc(C(=O)NC[C@](O)(c2cc3c(c(-c4ccc(SC(F)(F)F)cc4)n2)OC[C@]3(C)C(N)=O)C2CC2)cc2cn(C3CC3)nc12 [Example 386] | > 0.2 |
| COc1cc(C(=O)NC[C@](O)(c2cc3c(c(-c4ccnc(Cl)c4Cl)n2)OC[C@]3(C)C(N)=O)C2CC2)cc2cn(C3CC3)nc12 [Example 387] | < 0.2 |
| COc1cc(-c2nc([C@@](O)(CNC(=O)c3cc(OC)c4nn(C5CC5)cc4c3)C3CC3)cc3c2OC[C@]3(C)C(N)=O)c(F)cn1 [Example 388] | < 0.2 |

| SMILES | EC50 [µM] |
| --- | --- |
| COc1cc(C(=O)NC[C@](O)(c2cc3c(c(-c4cc(Cl)ncc4Cl)n2)OC[C@]3(C)C(N)=O)C2CC2)cc2cn(C3CC3)nc12 [Example 389] | < 0.2 |
| COc1cc(C(=O)NC[C@](O)(c2cc3c(c(-c4cc(C(F)(F)F)c(F)cc4F)n2)OC[C@]3(C)C(N)=O)C(F)(F)F)cc2cn(C3CC3)nc12 [Example 395] | < 0.2 |
| COc1cc(C(=O)NC[C@](O)(c2cc3c(c(-c4cc(C(F)F)c(F)cc4F)n2)OC[C@]3(C)C(N)=O)C(F)(F)F)cc2cn(C3CC3)nc12 [Example 396] | < 0.2 |
| COc1cc(C(=O)NC[C@@](O)(c2cccc(F)c2)c2cc3c(c(-c4ccc(C(C)(C)O)cc4)n2)OC[C@]3(C)C(N)=O)cc2cn(C3(F)CC3)nc12 [Example 397] | > 0.2 |
| COc1cc(C(=O)NC[C@](O)(c2cccc(F)c2)c2cc3c(c(-c4ccc(C(C)(C)O)cc4)n2)OC[C@]3(C)C(N)=O)cc2cn(C3(F)CC3)nc12 [Example 398] | > 0.2 |
| COc1cc(C(=O)NCC(O)(c2cccc(F)c2)c2cc3c(c(-c4cccc(Cl)c4C#N)n2)OC[C@]3(C)C(N)=O)cc2cn(C3(F)CC3)nc12 (stereo partly drawn) [Example 399] | > 0.2 |
| COc1cc(C(=O)NC[C@@](O)(c2cccc(F)c2)c2cc3c(c(-c4cc(F)c(F)cc4C(N)=O)n2)OC[C@]3(C)C(N)=O)cc2cn(C3(F)CC3)nc12 [Example 405] | > 0.2 |
| COc1cc(C(=O)NC[C@](O)(c2cccc(F)c2)c2cc3c(c(-c4cc(F)c(F)cc4C(N)=O)n2)OC[C@]3(C)C(N)=O)cc2cn(C3(F)CC3)nc12 [Example 406] | > 0.2 |
| COc1cc(C(=O)NC[C@](O)(c2cccc(F)c2)c2cc3c(c(-c4cc(C(F)(F)F)ncc4F)n2)OC[C@]3(C)C(N)=O)cc2cn(C3CC3)nc12 [Example 409] | > 0.2 |
| COc1cc(C(=O)NC[C@](O)(c2cccc(F)c2)c2cc3c(c(-c4cc(Cl)ncc4F)n2)OC[C@]3(C)C(N)=O)cc2cn(C3CC3)nc12 [Example 411] | > 0.2 |
| COc1cc(C(=O)NCC(O)(c2cc3c(c(-c4cc(C(F)(F)F)ncc4Cl)n2)OC[C@]3(C)C(N)=O)C2CC2)cc2cn(C3CC3)nc12 (stereo partly drawn) [Example 418] | > 0.2 |
| COc1cc(C(=O)NC[C@](O)(c2cc3c(c(-c4ccnc(Cl)c4C)n2)OC[C@]3(C)C(N)=O)C2CC2)cc2cn(C3CC3)nc12 [Example 427] | < 0.2 |
| COc1cc(C(=O)NC[C@](O)(c2cc3c(c(-c4ccnc(C)c4F)n2)OC[C@]3(C)C(N)=O)C2CC2)cc2cn(C3CC3)nc12 [Example 428] | < 0.2 |
| COc1cc(C(=O)NC[C@](O)(c2cc3c(c(-c4ccnc5[nH]ccc45)n2)OC[C@]3(C)C(N)=O)C2CC2)cc2cn(C3CC3)nc12 [Example 429] | > 0.2 |
| COc1cc(C(=O)NC[C@](O)(c2cc3c(c(-c4ccnc5ccccc45)n2)OC[C@]3(C)C(N)=O)C2CC2)cc2cn(C3CC3)nc12 [Example 430] | < 0.2 |
| COc1cc(C(=O)NC[C@](O)(c2cc3c(c(-c4c(C)cncc4C)n2)OC[C@]3(C)C(N)=O)C2CC2)cc2cn(C3CC3)nc12 [Example 431] | < 0.2 |
| COc1cc(C(=O)NC[C@](O)(c2cc3c(c(-c4cc(C5CC5)ncc4F)n2)OC[C@]3(C)C(N)=O)C2CC2)cc2cn(C3CC3)nc12 [Example 432] | < 0.2 |
| COc1cc(C(=O)NC[C@](O)(c2cc3c(c(-c4c(F)cncc4F)n2)OC[C@]3(C)C(N)=O)C2CC2)cc2cn(C3CC3)nc12 [Example 433] | < 0.2 |
| COc1cc(C(=O)NC[C@](O)(c2cc3c(c(-c4c(F)cncc4Cl)n2)OC[C@]3(C)C(N)=O)C2CC2)cc2cn(C3CC3)nc12 [Example 434] | < 0.2 |
